From US20040235855A1, “Phospholipase C inhibitors for use in treating inflammatory disorders” (priority 2003, published 2004) come the findings set out here.

One assay has as its target T1, human PLC-β2 (Homo sapiens, UniProt Q00722).
T1 construct: made in house; host or cells: Sf9 cells (Spodoptera frugiperda), recombinant baculovirus
As to the kind of experiment: PLC assay using FlashPlates (96-well, immobilized [3H]PIP2 substrate). The assay is classed as biochemical. The note with it: purified recombinant human PLC-β2 or cytosolic human PLC-β2; hydrolysis of [3H]PIP2. The text has this:
The hydrolysis of phosphatidylinositol-4,5-bisphosphate (PIP2) by a specific phospholipase C-β2 (PLC-β2) produces two intracellular messengers, diacylglycerol (DAG) and inositol 1,4,5-trisphosphate (IP3), which mediate the activation of protein kinase C and intracellular Ca^2+ release. A conventional organic solvent extraction method is widely used for PLC assays to isolate IP3 from the substrate PIP2. The conventional PLC-β2 assay, however is terminated by addition of acidified organic solvents and subsequent extraction and phase separation. […] Accordingly, a preferred method to test the compounds of the present invention, was developed utilizing a 96-well plate assay for PLC-β2 using immobilized radiolabeled substrate to quantitatively measure the reduction in the substrate level without a need for organic solvent extraction. The automated PLC-β2 assay described herein provides a convenient method for quantitative measurement of phospholipase C activities in a high throughput fashion. Ninety-six well Phospholipid FlashPlates were coated with 0.2 mL of 50 mM Tris/HCl (pH 7.4), 0.01% Ac-BSA and 50,000 cpm of […] (phosphatidylinositol-4,5-bisphosphate) at 4° C. for 72 h. The wells were aspirated and washed twice with PBS. The reactions were conducted directly in the wells in PLC reaction buffer containing 50 mM Tris/HCl (pH 7.2), 2.75 mM EDTA (pH 7.3), 80 mM KCl, 10 mM LiCl, 0.04% DOC and 2 mM CaCl2 in the absence or presence of the purified recombinant human PLC-β2 (prepared as described hereafter) or cytosolic human PLC-β2 from […]. Reduction of radioactivity was monitored by a Packard TopCount instrument (Packard Instrument Company, Conn., USA). […] The cells were grown in Grace's media supplemented with 10% (v/v) fetal bovine serum, 3.3 g/l yeastolate, 3.3 g/l lactalbumin hydrosylate, glutamine (6.4 mM final), 50 μg/ml gentamicin, and 50 μg/ml kanamycin. Suspension of Sf9 cells (1.0×10^6 cells/ml) were infected with 5 pfu/cell of recombinant baculovirus encoding PLC-β2 and incubated at 27° C. for 72 h. The cells were collected by centrifugation (500×g, 7 min, 4° C.) and disrupted by hypotonic lysis buffer containing 20 mM Tris/HCl, pH 7.4, 5 mM MgCl2, 2 mM EGTA, 200 μM PMSF, 200 μM benzamidine and 1 μM pepstatin A. The lysate was sonicated on ice and the nuclei and unbroken cells removed by centrifigation (500×g, 5 min, 4C.). The supernatant was recovered and clarified by centrifugation (34,000 rpm, 60 min, 4C.). The supernatant was used as a crude cytosolic fraction (Paterson, A., Boyer, J. L., Watts, V. J., Morris, A. J., Price, […]. (1995) Concentration of enzyme-dependent activation of PLC β1 and PLC β2 by Gα11 and βγ subunits. Cellular Signalling 7, 709-720). Crude cytosol prepared from Sf9 cells expressing PLC-β2 was purified initially by chromatography on a 10 ml column of Q-Sepharose FF, equilibrated in buffer A (25 mM HEPES, pH 7.2,2 mM DTT, 2 mM EDTA, 2 mM EGTA, 200 μM PMSF, 200 μM benzamidine, 1 μM pepstatin A containing 10 mM NaCl). The column was washed with 20 ml of equilibration buffer and eluted with a 200-ml gradient of 110-410 mM NaCl in buffer A. The fractions containing PLC activity were pooled and diluted with buffer A. The diluted enzyme was applied to a 4 ml column of heparin-SepharoseCL-6B equilibrated in buffer A and the column washed with 70 ml of buffer A. The column was eluted with 80 ml of gradient of 0-1.0 M NaCl in buffer A, the column eluate collected in 3 ml fractions. […]

A further assay has as its system PMA-induced ear edema. As to the kind of experiment: Acute PMA-induced ear edema mouse model. In kind it is in vivo. The source says:
The acute PMA-induced ear edema mouse model was used to test compounds of the present […] (as described in Carlson R P, O'Neill-Davis L, Chang J. and Lewis A J, Modulation of Mouse Ear Edema by Cyclooxygenase and Lipoxygenase Inhibitors and Other Pharmacologic Agents, Agents and Actions, 1985, 17:197-204).

T1 sequence (Q00722 whole entry): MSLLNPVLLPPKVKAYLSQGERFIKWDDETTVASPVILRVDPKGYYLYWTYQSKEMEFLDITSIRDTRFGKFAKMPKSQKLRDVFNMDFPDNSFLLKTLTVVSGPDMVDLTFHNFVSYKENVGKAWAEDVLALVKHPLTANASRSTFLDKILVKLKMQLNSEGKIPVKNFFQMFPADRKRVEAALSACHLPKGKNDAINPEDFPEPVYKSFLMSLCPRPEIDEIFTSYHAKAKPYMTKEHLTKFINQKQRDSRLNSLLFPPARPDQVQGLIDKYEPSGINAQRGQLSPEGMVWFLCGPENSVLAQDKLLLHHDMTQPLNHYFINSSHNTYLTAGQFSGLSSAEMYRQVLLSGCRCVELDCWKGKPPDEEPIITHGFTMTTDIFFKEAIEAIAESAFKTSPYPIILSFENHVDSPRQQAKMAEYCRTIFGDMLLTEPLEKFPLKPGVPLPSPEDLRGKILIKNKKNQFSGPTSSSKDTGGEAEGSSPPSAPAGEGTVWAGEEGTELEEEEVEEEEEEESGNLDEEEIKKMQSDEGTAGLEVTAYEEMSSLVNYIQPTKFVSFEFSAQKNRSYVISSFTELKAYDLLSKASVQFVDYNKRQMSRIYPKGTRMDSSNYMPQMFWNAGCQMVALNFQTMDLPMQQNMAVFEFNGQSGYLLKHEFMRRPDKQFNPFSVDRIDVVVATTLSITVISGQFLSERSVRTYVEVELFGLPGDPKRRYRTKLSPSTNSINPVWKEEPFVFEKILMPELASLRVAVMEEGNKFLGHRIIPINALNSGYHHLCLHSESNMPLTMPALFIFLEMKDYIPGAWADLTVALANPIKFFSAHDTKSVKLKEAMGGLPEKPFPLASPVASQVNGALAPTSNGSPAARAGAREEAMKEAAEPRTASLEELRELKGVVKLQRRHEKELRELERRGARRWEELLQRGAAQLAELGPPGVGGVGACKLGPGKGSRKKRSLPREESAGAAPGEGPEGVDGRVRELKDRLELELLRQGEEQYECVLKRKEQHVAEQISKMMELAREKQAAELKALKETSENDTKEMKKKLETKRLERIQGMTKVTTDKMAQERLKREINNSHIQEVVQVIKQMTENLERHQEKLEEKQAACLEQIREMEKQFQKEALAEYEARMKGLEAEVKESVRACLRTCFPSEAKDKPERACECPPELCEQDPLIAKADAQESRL

With `NC(=O)c1ccc(N2CCN(C3c4ccccc4-c4ccccc43)CC2)c(NC(=O)Nc2ccccc2)c1` [Cpd 9, 4-[4-(9H-fluoren-9-yl)-1-piperazinyl]-3-[[(phenylamino)carbonyl]amino]-benzamide], the IC50 on human PLC-β2 worked out at 1.9 µM. In addition, the entries for the “% Inhibition” value with PMA-induced ear edema (5 mpk i.v.), in the assay with PMA-induced ear edema (30 mpk i.p.) and with PMA-induced ear edema (30 mpk p.o.) were 44%, 52% and 44%, respectively.

With `NC(=O)c1ccc(N2CCN(C(c3ccc(F)cc3)c3ccc(F)cc3)CC2)c(NC(=S)NCc2ccccc2)c1` [Cpd 21, 4-[4-[bis(4-fluorophenyl)methyl]-1-piperazinyl]-3-[[[(phenylmethyl)amino]thioxomethyl]amino]-benzamide], on human PLC-β2, the IC50 was found to be 2.3 µM. Besides, the “% Inhibition” value was found to be 56% in the assay on PMA-induced ear edema (5 mpk i.v.), 83% with PMA-induced ear edema (30 mpk i.p.) and 31% in the assay on PMA-induced ear edema (30 mpk p.o.).

As to `O=C(Nc1ccccc1)Nc1cc(C(=O)N2CCNCC2)ccc1N1CCN(C(c2ccccc2)c2ccccc2)CC1` [Cpd 40, N-[2-[4-(diphenylmethyl)-1-piperazinyl]-5-(1-piperazinylcarbonyl)phenyl]-N′-phenylurea], the IC50 on human PLC-β2 is 1.6 µM. The figures for the “% Inhibition” value with PMA-induced ear edema (5 mpk i.v.), in the assay on PMA-induced ear edema (30 mpk i.p.) and in the assay with PMA-induced ear edema (30 mpk p.o.) were 44%, 81% and 9%, respectively.

Regarding `O=C(Nc1ccccc1)Nc1cc(C(=O)N2CCNCC2)ccc1N1CCN(C(c2ccccc2)c2ccc(Cl)cc2)CC1` (stereo not shown) [Cpd 60, N-[2-[4-[(4-chlorophenyl)phenylmethyl]-1-piperazinyl]-5-(1-piperazinylcarbonyl)phenyl]-N′-phenyl-urea], at human PLC-β2, the IC50 came out at 0.95 µM.

As for `O=C(/C=C/c1ccccc1)NC(=O)Nc1cc(C(=O)N2CCNCC2)ccc1N1CCN(C(c2ccccc2)c2ccccc2)CC1` [Cpd 61, N-[2-[4-(diphenylmethyl)-1-piperazinyl]-5-(1-piperazinylcarbonyl)phenyl]-N′-[(2E)-1-oxo-3-phenyl-2-propenyl]-urea], the IC50 at human PLC-β2 is 4.3 µM.

With `CC(C)(C)NC(=O)Nc1cc(C(=O)N2CCNCC2)ccc1N1CCN(C(c2ccccc2)c2ccccc2)CC1` [Cpd 62, N-(1,1-dimethylethyl)-N′-[2-[4-(diphenylmethyl)-1-piperazinyl]-5-(1-piperazinylcarbonyl)phenyl]-urea], the IC50 on human PLC-β2 was over 25 µM.

`O=C(Nc1cc(C(=O)N2CCNCC2)ccc1N1CCN(C(c2ccccc2)c2ccccc2)CC1)NC1CCCC1` [Cpd 63, N-cyclopentyl-N′-[2-[4-(diphenylmethyl)-1-piperazinyl]-5-(1-piperazinylcarbonyl)phenyl]-urea]: the 50% inhibitory concentration (IC50) at human PLC-β2 was 13.7 µM.

`C[C@H](NC(=O)Nc1cc(C(=O)N2CCNCC2)ccc1N1CCN(C(c2ccccc2)c2ccccc2)CC1)c1ccccc1` [Cpd 64, N-[2-[4-(diphenylmethyl)-1-piperazinyl]-5-(1-piperazinylcarbonyl)phenyl]-N′-[(1S)-1-phenylethyl]-urea]: on human PLC-β2, the IC50 is over 25 µM.

On to `O=C(c1ccc(N2CCN(C(c3ccccc3)c3ccccc3)CC2)c(NC(=S)NCc2ccccc2)c1)N1CCNCC1` [Cpd 65, N-[2-[4-(diphenylmethyl)-1-piperazinyl]-5-(1-piperazinylcarbonyl)phenyl]-N′-(phenylmethyl)thiourea], for which, on human PLC-β2, the IC50 came out at 6.2 µM.

Turning to `CC(C)NC(=O)Nc1cc(C(=O)N2CCNCC2)ccc1N1CCN(C(c2ccccc2)c2ccccc2)CC1` [Cpd 66, N-[2-[4-(diphenylmethyl)-1-piperazinyl]-5-(1-piperazinylcarbonyl)phenyl]-N′-(1-methylethyl)urea], the IC50 on human PLC-β2 is over 25 µM.

Take `O=C(NC(=S)Nc1cc(C(=O)N2CCNCC2)ccc1N1CCN(C(c2ccccc2)c2ccccc2)CC1)c1ccc(Cl)cc1` [Cpd 67, N-(4-chlorobenzoyl)-N′-[2-[4-(diphenylmethyl)-1-piperazinyl]-5-(1-piperazinylcarbonyl)phenyl]-thiourea]: the IC50 at human PLC-β2 came to 3.4 µM.

Turning to `NC(=O)c1ccc(N2CCN(C(c3ccncc3)c3ccc(F)cc3)CC2)c(NC(=O)Nc2ccccc2)c1` (stereo not shown) [Cpd 77, 4-[4-[(4-fluorophenyl)-4-pyridinylmethyl]-1-piperazinyl]-3-[[(phenylamino)carbonyl]amino]-benzamide], at human PLC-β2, the IC50 is about 10 µM.

As for `NC(=O)c1ccc(N2CCN(C(c3ccncc3)c3ccc(F)cc3)CC2)c(NC(=O)NC2CCCCC2)c1` (stereo not shown) [Cpd 78], on human PLC-β2, the IC50 is over 10 µM.

Regarding `NC(=O)c1ccc(N2CCCN(C(c3ccncc3)c3ccc(F)cc3)CC2)c(NC(=O)Nc2ccccc2)c1` (stereo not shown) [Cpd 79, 4-[4-[(4-fluorophenyl)-4-pyridinylmethyl]hexahydro-1H-1,4-diazepin-1-yl]-3-[[(phenylamino)carbonyl]amino]-benzamide], the IC50 at human PLC-β2 is over 10 µM.

For the molecule `NC(=O)c1ccc(N2CCCN(C(c3ccncc3)c3ccc(F)cc3)CC2)c(NC(=O)NC2CCCCC2)c1` (stereo not shown) [Cpd 80, 3-[[(cyclohexylamino)carbonyl]amino]-4-[4-[(4-fluorophenyl)-4-pyridinylmethyl]hexahydro-1H-1,4-diazepin-1-yl]-benzamide], at human PLC-β2, the IC50 is over 10 µM.

With `NC(=O)c1ccc(N2CCCN(C(c3ccc(F)cc3)c3ccc(F)cc3)CC2)c(NC(=O)Nc2ccccc2)c1` [Cpd 81, 4-[4-[bis(4-fluorophenyl)methyl]hexahydro-1H-1,4-diazepin-1-yl]-3-[[(phenylamino)carbonyl]amino]-benzamide], the IC50 on human PLC-β2 was about 10 µM.

Take `NC(=O)c1ccc(N2CCCN(C(c3ccc(F)cc3)c3ccc(F)cc3)CC2)c(NC(=O)NC2CCCCC2)c1` [Cpd 82, 4-[4-[bis(4-fluorophenyl)methyl]hexahydro-1H-1,4-diazepin-1-yl]-3-[[(cyclohexylamino)carbonyl]amino]-benzamide]: the IC50 on human PLC-β2 was about 10 µM.

With `O=C(Nc1ccccc1)Nc1ccc(C(=O)N2CCNCC2)cc1N1CCCN(C(c2ccc(F)cc2)c2ccc(F)cc2)CC1` [Cpd 89, N-[2-[4-[bis(4-fluorophenyl)methyl]hexahydro-1H-1,4-diazepin-1-yl]-4-(1-piperazinylcarbonyl)phenyl]-N′-phenyl-urea], the IC50 at human PLC-β2 came out at 0.81 µM.

`O=C(Nc1ccccc1)Nc1ccc(C(=O)N2CCNCC2)cc1N1CCN(C(c2ccc(F)cc2)c2ccc(F)cc2)CC1` [Cpd 90, N-[2-[4-[bis(4-fluorophenyl)methyl]-1-piperazinyl]-4-(1-piperazinylcarbonyl)phenyl]-N′-phenyl-urea]: the IC50 on human PLC-β2 is 0.98 µM.

With `O=C(Nc1ccccc1)Nc1ccc(C(=O)N2CCNCC2)cc1N1CCN(C(c2ccccc2)c2ccccc2)CC1` [Cpd 91, N-[2-[4-(diphenylmethyl)-1-piperazinyl]-4-(1-piperazinylcarbonyl)phenyl]-N′-phenyl-urea], the half-inhibitory concentration (IC50) at human PLC-β2 was found to be 1.3 µM.

With `O=C(Nc1ccc(C(=O)N2CCNCC2)cc1N1CCN(C(c2ccccc2)c2ccccc2)CC1)NC1CCCCC1` [Cpd 92, N-cyclohexyl-N′-[2-[4-(diphenylmethyl)-1-piperazinyl]-4-(1-piperazinylcarbonyl)phenyl]-urea], the IC50 on human PLC-β2 was determined as 1.6 µM.

On to `NC(=O)c1ccc(NC(=O)Nc2ccccc2)c(N2CCN(C(c3ccccc3)c3ccccc3)CC2)c1` [Cpd 93, 3-[4-(diphenylmethyl)-1-piperazinyl]-4-[[(phenylamino)carbonyl]amino]-benzamide], for which the IC50 at human PLC-β2 came out at 1.8 µM.

The IC50 is the concentration at which inhibition is half-maximal. The term % Inhibition denotes the change of the read-out against control, counted positive when it falls. A low value points to little suppression.
